Patent US8377974B2 (Millennium Pharmaceuticals, Inc., priority 2004, dated 2013)

biological target: T1, human plasma protein factor Xa (Homo sapiens, UniProt P00742); test: Factor Xa IC50 determination: cleavage of paranitroanilide substrate S-2765 in 96-well plates; format: biochemical; conditions: fXa 1 nM, S-2765 100 μM, Tris buffered saline pH 7.4, room temperature
T1 construct: measure proteolytic activity of the enzyme (factor Xa); purchased Haematologic Technologies (Essex Junction, Vt.); host or cells: human plasma
Summary of the method: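 Initial rates of S-2765 (100 μM final) cleavage, read at 405 nm for 2 min, fitted with a four-parameter equation to give IC50. Enzyme: 1 nM human plasma fXa, 5 min room-temperature preincubation with inhibitor (0.01 nM–10 μM) in 20 mM Tris, 150 mM NaCl, 5 mM CaCl2, 0.1% BSA, 5% DMSO, pH 7.4; duplicates.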

T1 sequence (P00742 235-488 limits assumed): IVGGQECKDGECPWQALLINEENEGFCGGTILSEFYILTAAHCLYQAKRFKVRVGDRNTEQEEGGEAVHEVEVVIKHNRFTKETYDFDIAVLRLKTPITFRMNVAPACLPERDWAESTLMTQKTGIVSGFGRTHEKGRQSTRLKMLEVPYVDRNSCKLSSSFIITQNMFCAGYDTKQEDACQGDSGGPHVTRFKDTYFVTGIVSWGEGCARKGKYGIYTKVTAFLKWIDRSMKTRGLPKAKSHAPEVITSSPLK
T1 sequence (P00742 41-179 partner limits assumed): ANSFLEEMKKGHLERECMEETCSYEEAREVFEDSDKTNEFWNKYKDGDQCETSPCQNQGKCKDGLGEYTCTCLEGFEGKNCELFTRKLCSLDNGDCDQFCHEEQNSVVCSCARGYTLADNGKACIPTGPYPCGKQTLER

SMILES	IC50
CN(C)Cc1cccc(-c2cccc(-c3cc(CNC(=O)c4ccc(Cl)s4)on3)c2)c1 [Example 270, 5-Chloro-thiophene-2-carboxylic acid [3-(3′-dimethylaminomethyl-biphenyl-3-yl)-isoxazol-5-ylmethyl]-amide]	≥ 0.5 µM
O=C(NCc1cc(-c2ccc(Nc3ccccc3)cc2)no1)c1ccc(Cl)s1 [Example 250, 5-Chloro-thiophene-2-carboxylic acid [3-(4-phenylamino-phenyl)-isoxazol-5-ylmethyl]-amide]	≥ 0.5 µM
O=C(NCC1CC(c2ccccc2)=NO1)c1ccc(Cl)s1 (stereo not shown) [Example 144, 5-Chloro-thiophene-2-carboxylic acid (3-phenyl-4,5-dihydro-isoxazol-5-ylmethyl)-amide]	≥ 0.5 µM
Cc1ccn(-c2ccc(C3=NOC(CNC(=O)c4ccc(Cl)s4)C3)cc2)c(=O)c1 (stereo not shown) [Example 284, 5-Chloro-N-((3-(4-(4-methyl-2-oxopyridin-1(2H)-yl)phenyl)-4,5-dihydroisoxazol-5-yl)methyl)thiophene-2-carboxamide]	≤ 0.1 µM
CCCN(C)C(=N)c1ccc(C2=NOC(CNC(=O)c3ccc(Cl)s3)C2)cc1 (stereo not shown) [Example 17, 5-Chloro-thiophene-2-carboxylic acid {3-[4-(N-methyl-N-propyl-carbamimidoyl)-phenyl]-4,5-dihydro-isoxazol-5-ylmethyl}-amide]	≤ 0.1 µM
O=C(NCC1CC(c2ccc(Nc3ccncc3C(F)(F)F)cc2)=NO1)c1ccc(Cl)s1 (stereo not shown) [Example 403, 5-Chloro-N-((3-(4-(3-(trifluoromethyl)pyridin-4-ylamino)phenyl)-4,5-dihydroisoxazol-5-yl)methyl)thiophene-2-carboxamide]	≤ 0.1 µM
O=C(NCc1cc(-c2ccc(-c3ccncc3)cc2)no1)c1ccc(Cl)s1 [Example 193, 5-Chloro-thiophene-2-carboxylic acid [3-(4-pyridin-4-yl-phenyl)-isoxazol-5-ylmethyl]-amide]	≤ 0.1 µM
O=C(NCC1CC(c2ccc(-c3ccccc3CN3CCCC3)cc2)=NO1)c1ccc(Cl)s1 (stereo not shown) [Example 195, 5-Chloro-thiophene-2-carboxylic acid [3-(2′-pyrrolidin-1-ylmethyl-biphenyl-4-yl)-4,5-dihydro-isoxazol-5-ylmethyl]-amide]	≤ 0.1 µM
CN(C)CCN(C)C(=N)c1ccc(-c2cc(CN(C)C(=O)c3ccc(Cl)s3)on2)cc1 [Example 44, 5-Chloro-thiophene-2-carboxylic acid (3-{4-[N-(2-dimethylamino-ethyl)-N-methyl-carbamimidoyl]-phenyl}-isoxazol-5-ylmethyl)-methyl-amide]	≥ 0.5 µM
CNC(=N)c1ccc(-c2nc(CNC(=O)c3ccc(Cl)s3)co2)cc1 [Example 348, N-((2-(4-(N-Methylcarbamimidoyl)phenyl)oxazol-4-yl)methyl)-5-chlorothiophene-2-carboxamide]	≥ 0.5 µM
O=C(NCc1cn(-c2ccc(-n3ccccc3=O)cc2F)nn1)c1ccc(Cl)s1 [Example 305, 5-Chloro-N-((1-(2-fluoro-4-(2-oxopyridin-1(2H)-yl)phenyl)-1H-1,2,3-triazol-4-yl)methyl)thiophene-2-carboxamide]	≤ 0.1 µM
N=C(c1ccc(-c2cc(CNC(=O)c3ccc(Cl)s3)on2)c(Oc2ccccc2)c1)N1CCCC1 [Example 132, 5-Chloro-thiophene-2-carboxylic acid {3-[4-(imino-pyrrolidin-1-yl-methyl)-2-phenoxy-phenyl]-isoxazol-5-ylmethyl}-amide]	≤ 0.1 µM
CN1CCN=C1c1ccc(-c2csc(CNC(=O)c3ccc(Cl)s3)n2)cc1 [Example 361, 5-Chloro-N-((4-(4-(1-methyl-4,5-dihydro-1H-imidazol-2-yl)phenyl)thiazol-2-yl)methyl)thiophene-2-carboxamide]	≥ 0.5 µM
O=C(NCC1CC(c2ccc(Nc3ccccc3)cc2)=NO1)c1ccc(Cl)s1 (stereo not shown) [Example 222, 5-Chloro-thiophene-2-carboxylic acid [3-(4-phenylamino-phenyl)-4,5-dihydro-isoxazol-5-ylmethyl]-amide]	≥ 0.5 µM
C#CCN(C)C(=N)c1ccc(-c2cc(CNC(=O)c3ccc(Cl)s3)on2)cc1 [Example 33, 5-Chloro-thiophene-2-carboxylic acid {3-[4-(N-methyl-N-prop-2-ynyl-carbamimidoyl)-phenyl]-isoxazol-5-ylmethyl}-amide]	0.1 to 0.5 µM
O=C(NCc1cc(-c2ccc(I)cc2)no1)c1ccc(Cl)s1 [Example 288, 5-Chloro-N-((3-(4-iodophenyl)isoxazol-5-yl)methyl)thiophene-2-carboxamide]	≥ 0.5 µM
CN(Cc1cc(-c2ccc(C(=N)N3CCCC3)cc2)no1)C(=O)c1ccc(Cl)s1 [Example 37, 5-Chloro-thiophene-2-carboxylic acid {3-[4-(imino-pyrrolidin-1-yl-methyl)-phenyl]-isoxazol-5-ylmethyl}-methyl-amide]	≥ 0.5 µM

SMILES	IC50
O=C(NCc1cn(-c2ccc(-n3ccccc3=O)cn2)nn1)c1ccc(Cl)s1 [Example 309, 5-Chloro-N-((1-(5-(2-oxopyridin-1(2H)-yl)pyridin-2-yl)-1H-1,2,3-triazol-4-yl)methyl)thiophene-2-carboxamide]	≤ 0.1 µM
CN1CCN=C1c1ccc(-c2cc(CNC(=O)c3ccc(Cl)s3)on2)c(F)c1 [Example 70, 5-Chloro-thiophene-2-carboxylic acid {3-[2-fluoro-4-(1-methyl-4,5-dihydro-1H-imidazol-2-yl)-phenyl]-isoxazol-5-ylmethyl}-amide]	≤ 0.1 µM
Cn1ccc(Nc2ccc(C3=NOC(CNC(=O)c4ccc(Cl)s4)C3)cc2)n1 (stereo not shown) [Example 233, 5-Chloro-thiophene-2-carboxylic acid {3-[4-(1-methyl-1H-pyrazol-3-ylamino)-phenyl]-4,5-dihydro-isoxazol-5-ylmethyl}-amide]	0.1 to 0.5 µM
COC(=O)c1ccc(C2=NOC(CNC(=O)c3ccc(Cl)s3)C2)cc1 (stereo not shown) [Example 156, 4-(5-{[(5-Chloro-thiophene-2-carbonyl)-amino]-methyl}-4,5-dihydro-isoxazol-3-yl)-benzoic acid methyl ester]	≥ 0.5 µM
CN(C)c1cc(C(=N)N2CCCCC2)ccc1C1=NOC(CNC(=O)c2ccc(Cl)s2)C1 (stereo not shown) [Example 77, 5-Chloro-thiophene-2-carboxylic acid {3-[2-dimethylamino-4-(imino-piperidin-1-yl-methyl)-phenyl]-4,5-dihydro-isoxazol-5-ylmethyl}-amide]	≤ 0.1 µM
O=C(NCc1cc(-c2ccc(NCc3ccccc3)cc2)no1)c1ccc(Cl)s1 [Example 258, 5-Chloro-thiophene-2-carboxylic acid [3-(4-benzylamino-phenyl)-isoxazol-5-ylmethyl]-amide]	≥ 0.5 µM
CN1CCN=C1c1ccc(-n2cnc(CNC(=O)c3ccc(Cl)s3)c2)cc1 [Example 365, 5-Chloro-N-((1-(4-(1-methyl-4,5-dihydro-1H-imidazol-2-yl)phenyl)-1H-imidazol-4-yl)methyl)thiophene-2-carboxamide]	≤ 0.1 µM
N=C(c1ccc(-c2csc(CNC(=O)c3ccc(Cl)s3)n2)cc1)N1CCCCC1 [Example 363, 5-Chloro-N-((4-(4-(imino(piperidin-1-yl)methyl)phenyl)thiazol-2-yl)methyl)thiophene-2-carboxamide]	≥ 0.5 µM
COCCN(C)c1cc(C(=N)N2CCCCC2)ccc1C1=NOC(CNC(=O)c2ccc(Cl)s2)C1 (stereo not shown) [Example 89, 5-Chloro-thiophene-2-carboxylic acid (3-{4-(imino-piperidin-1-yl-methyl)-2-[(2-methoxy-ethyl)-methyl-amino]-phenyl}-4,5-dihydro-isoxazol-5-ylmethyl)-amide]	0.1 to 0.5 µM
COc1ccc(Oc2cc(C(=N)N3CCCC3)ccc2-c2cc(CNC(=O)c3ccc(Cl)s3)on2)cc1 [Example 135, 5-Chloro-thiophene-2-carboxylic acid {3-[4-(imino-pyrrolidin-1-yl-methyl)-2-(4-methoxy-phenoxy)-phenyl]-isoxazol-5-ylmethyl}-amide]	≤ 0.1 µM
COc1ccc(-c2ccc(-c3cc(CNC(=O)c4ccc(Cl)s4)on3)cc2)c(CN(C)C)c1 [Example 217, 5-Chloro-thiophene-2-carboxylic acid [3-(2′-dimethylaminomethyl-4′-methoxy-biphenyl-4-yl)-isoxazol-5-ylmethyl]-amide]	≤ 0.1 µM
COC[C@H]1CCCN1c1ccc(C2=NOC(CNC(=O)c3ccc(Cl)s3)C2)cc1 (stereo partly shown) [Example 236, 5-Chloro-thiophene-2-carboxylic acid {3-[4-(2-methoxymethyl-pyrrolidin-1-yl)-phenyl]-4,5-dihydro-isoxazol-5-ylmethyl}-amide]	≥ 0.5 µM
CN1CCN(c2ccc(-n3cc(CNC(=O)c4ccc(Cl)s4)nn3)cn2)CC1 [Example 391, 5-Chloro-N-((1-(6-(4-methylpiperazin-1-yl)pyridin-3-yl)-1H-1,2,3-triazol-4-yl)methyl)thiophene-2-carboxamide]	0.1 to 0.5 µM
O=C(NCc1cn(-c2ccc(N3CCOCC3)nc2)nn1)c1ccc(Cl)s1 [Example 386, 5-Chloro-N-((1-(6-morpholinopyridin-3-yl)-1H-1,2,3-triazol-4-yl)methyl)thiophene-2-carboxamide]	0.1 to 0.5 µM
O=C(NCc1cn(-c2ccc(-n3cc(Cl)ccc3=O)cc2)nn1)c1ccc(Cl)s1 [Example 299, 5-Chloro-N-((1-(4-(5-chloro-2-oxopyridin-1(2H)-yl)phenyl)-1H-1,2,3-triazol-4-yl)methyl)thiophene-2-carboxamide]	≤ 0.1 µM
CC1(CNC(=O)c2ccc(Cl)s2)CC(c2ccc(C(=N)N3CCCC3)cc2)=NO1 (stereo not shown) [Example 59, 5-Chloro-thiophene-2-carboxylic acid {3-[4-(imino-pyrrolidin-1-yl-methyl)-phenyl]-5-methyl-4,5-dihydro-isoxazol-5-ylmethyl}-amide]	≤ 0.1 µM
CN(C)Cc1ccc(-c2cccc(C3=NOC(CNC(=O)c4ccc(Cl)s4)C3)c2)cc1 (stereo not shown) [Example 266, 5-Chloro-thiophene-2-carboxylic acid [3-(4′-dimethylaminomethyl-biphenyl-3-yl)-4,5-dihydro-isoxazol-5-ylmethyl]-amide]	≥ 0.5 µM
